The source of these data is patent US20050222183A1, “Combination of zd6474, an inhibitor of the vascular endothelial growth factor receptor, with radiotherapy in the treatment of cancer” (priority 2002, published 2005).

Assay [1] deals with Calu-6 (lung carcinoma) tumour xenografts. The assay is described as follows: Calu-6 xenograft model: ZD6474 25 mg/kg given after ionising radiation. It is filed as in vivo, female Alderley Park nude mice. How it is done:
Calu-6 (lung carcinoma) cells were obtained from the American Type Culture Collection (Manassas, Va.). All cell culture reagents, where not specified, were obtained from Life Technologies, Paisley, UK. Cells were maintained as exponentially growing monolayers in Eagle's Minimal Essential Medium (EMEM) containing 10% FCS (Labtech International, Ringmer, UK), 2 mM L-glutamine (Sigma Chemical Co., Poole, UK), 1% sodium pyruvate (100 mM) and 1% non-essential amino acids. Cells were periodically screened for the presence of microplasma in culture, and analysed for 15 types of virus in a mouse antibody production test (AstraZeneca Central Toxicology Laboratories, Alderley Park, UK) prior to routine use in vivo.
Calu-6 cells (2×10^7 cells/ml) were prepared for implantation in a mixture of 50% (v/v) matrigel (Fred Baker, Liverpool, UK) in serum free Roswell Park Memorial Institute (RPMI)-1640 media. Tumour xenografts were established by subcutaneously injecting 0.1 ml of the cell suspension (i.e. 2×10^6 cells/mouse) into female Alderley Park nude mice (nu/nu genotype; 8-10 weeks of age). Once a palpable tumour was evident, tumour volume was assessed daily by calliper measurement and calculated using the formula, length×width×height.
Mice were randomised into groups of eight, prior to treatment, when tumours measured 225-315 mm^3. Ionising radiation, where given, was administered at a dose rate of 2 Gy per min to unanaesthetised mice restrained in polyvinyl jigs with lead shielding and a cut away section to allow local irradiation of the tumour by the unilateral beam (Pantac X-ray set). Jigs were turned through 180° halfway through the radiation exposure time to provide a uniform dosing. Radiation was administered either as a single dose (5 Gy on day 1) or by multiple daily dosing (2 Gy/day on days 1-3). Thirty minutes after the last dose of radiation, ZD6474 (25 mg/kg), or vehicle, was administered by oral gavage (0.1 ml/10 g body weight) and then once-daily thereafter for a further 13 days (i.e. 14 days of oral treatment in total). ZD6474 was prepared as a suspension in 1% polysorbate 80 (i.e. a 1% (v/v) solution of polyoxyethylene (20) sorbitan mono-oleate in deionised water). Mice were humanely killed when the relative volume of their tumour reached four times that at the initiation of therapy (RTV4). A two-tailed two-sample t-test was used to evaluate the significance of the results obtained.

For the next assay, the system named is Calu-6 tumours. The assay can be described thus: Calu-6 xenograft model: schedules, ZD6474 50 mg/kg concurrent or sequential with radiotherapy. It is filed as in vivo, mice. The settings on record: for Growth delay (days ± SE): RTV4 relative to control. How it is done: In an analogous experiment using the Calu-6 xenograft model described hereinbefore different schedules were investigated.
Mice bearing Calu-6 tumours (220-300 mm^3) were randomized into groups of eight, to receive either ZD6474 (50 mg/kg p.o. once daily) or vehicle only (1% polysorbate in deionized water) for the duration of the experiment. ZD6474, or vehicle, was also administered with or without radiotherapy (3×2 Gy at 24-hour intervals during the first 3 days of treatment). Where mice received 50 mg/kg ZD6474 plus radiation therapy, two treatment schedules were examined. • a) Concurrent combination treatment: ZD6474 dosing given 2 hours prior to the first dose of radiation; and • b) Sequential combination treatment: ZD6474 dosing given 30 minutes after the last dose of radiotherapy. […]
Treatment efficacy was assessed by measuring the time for tumours to quadruple in volume (RTV4) from their pretreatment size and calculating the relative growth delay (i.e. comparing RTV4 values from individual treated groups, with that of the control).

Consider `COc1cc2c(Nc3ccc(Br)cc3F)ncnc2cc1OCC1CCN(C)CC1` [ZD6474, 4-(4-bromo-2-fluoroanilino)-6-methoxy-7-(1-methylpiperidin-4-ylmethoxy)quinazoline], for which the “RTV4” value in assay [1] (3 × 2Gy (days 1-3), then ZD6474 25 mg/kg/day oral for 14 days post-irradiation) was 28.1 days; in assay [1] (5 Gy single dose on day 1, then ZD6474 25 mg/kg/day oral for 14 days post-irradiation), 25.5 days; in assay [1] (ZD6474 25 mg/kg/day oral for 14 days, no radiation, time for tumour to reach four times its volume at initiation of therapy) it was 12.1 days. Further, the “Therapeutic effect of radiation plus ZD6474 versus either therapy alone” value in assay [1] (5 Gy or 3×2 Gy plus ZD6474 25 mg/kg) is on record as “better therapeutic effect than either therapy alone”. Besides, the “Growth delay of combination versus either single treatment” value in the assay with Calu-6 tumours (50 mg/kg ZD6474 combined with 3×2 Gy radiation) is “significantly greater than that of either single treatment alone”. Further, the “RTV4 (days ± SE)” value is on record as 17 ± 1.0 days in the assay on Calu-6 tumours (50 mg/kg ZD6474 p.o. once daily, no radiation, n = 8); 30 ± 1.0 days in the assay on Calu-6 tumours (3 × 2 Gy plus 50 mg/kg ZD6474 (concurrent: dosing begun 2 hours prior to first dose of radiation)); 44 ± 0.9 days in the assay on Calu-6 tumours (3 × 2 Gy plus 50 mg/kg ZD6474 (sequential: dosing begun 30 minutes after last dose of radiotherapy)). In addition, the “Growth delay (days ± SE)” value with Calu-6 tumours (50 mg/kg ZD6474 p.o. once daily, no radiation) turned out to be 9 ± 1.1 days; with Calu-6 tumours (3 × 2 Gy plus 50 mg/kg ZD6474 (concurrent)), 22 ± 1.1 days; in the assay on Calu-6 tumours (3 × 2 Gy plus 50 mg/kg ZD6474 (sequential)) it was 36 ± 1.0 days. Further, in the assay on Calu-6 tumours (3×2 Gy radiation and 50 mg/kg ZD6474), the “Tumour growth inhibition, sequential versus concurrent combination” value is given as “inhibited tumour growth significantly more than when the same agents were combined concurrently”. Besides, in the assay with Calu-6 tumours (sequential 3×2 Gy radiation and 50 mg/kg ZD6474), the “Antitumour effect of sequential combination versus sum of individual therapies” value is on record as “greater than the sum of the growth delays induced by the individual therapies”.
